The results in this text go back to patent publication US20250339443A1, “METHOD FOR TREATING OR PREVENTING CALCIUM RELEASE-ACTIVATED CALCIUM CHANNEL OR DISCOIDIN DOMAIN RECEPTOR 2 RELATED DISORDERS OR CONDITIONS” (LumiSTAR Biotechnology, Inc., priority 2023, published 2025).

Structures can show the parent of a compound that is named as a salt.

The target of one assay is T1, DDR2 (Homo sapiens, UniProt Q16832).
T1 construct: expressed in transfected cells; host or cells: HEK293T
T1 sequence (Q16832 22-855): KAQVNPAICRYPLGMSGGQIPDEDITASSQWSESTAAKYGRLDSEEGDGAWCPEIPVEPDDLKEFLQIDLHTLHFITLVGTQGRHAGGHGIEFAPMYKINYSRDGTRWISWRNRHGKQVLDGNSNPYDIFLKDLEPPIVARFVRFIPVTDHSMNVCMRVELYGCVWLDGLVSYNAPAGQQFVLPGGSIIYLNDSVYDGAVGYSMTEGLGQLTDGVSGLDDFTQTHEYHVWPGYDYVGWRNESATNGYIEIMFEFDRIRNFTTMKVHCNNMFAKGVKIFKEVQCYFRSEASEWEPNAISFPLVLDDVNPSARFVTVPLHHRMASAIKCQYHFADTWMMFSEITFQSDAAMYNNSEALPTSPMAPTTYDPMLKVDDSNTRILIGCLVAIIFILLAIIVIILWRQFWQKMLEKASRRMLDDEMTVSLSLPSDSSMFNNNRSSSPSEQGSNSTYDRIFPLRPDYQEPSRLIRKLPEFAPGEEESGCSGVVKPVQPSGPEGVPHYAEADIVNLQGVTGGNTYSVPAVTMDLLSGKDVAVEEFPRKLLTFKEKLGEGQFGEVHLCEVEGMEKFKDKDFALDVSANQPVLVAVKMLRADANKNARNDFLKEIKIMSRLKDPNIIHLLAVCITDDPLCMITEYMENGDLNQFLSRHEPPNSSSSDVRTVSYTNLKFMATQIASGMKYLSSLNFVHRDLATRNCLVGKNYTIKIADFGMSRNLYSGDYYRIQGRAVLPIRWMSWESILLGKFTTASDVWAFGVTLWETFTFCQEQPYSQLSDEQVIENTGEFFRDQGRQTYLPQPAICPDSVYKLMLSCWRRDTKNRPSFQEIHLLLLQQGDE
The experiment in a line: DDR2 activation (anti-phosphotyrosine Western blot) in HEK293T cells overexpressing DDR2, collagen-stimulated. The class given is cell-based. The settings on record: 10 μM pretreatment 30 minutes, then 50 μg/mL type I collagen 12 hours. As for the experimental part:
FIG. 1A, FIG. 1B, FIG. 1C, FIG. 1D, FIG. 1E, FIG. 1F, FIG. 1G, FIG. 1H, FIG. 1I, FIG. 1J, FIG. 1K, FIG. 1L, FIG. 1M, and FIG. 1N show WRG-28 and atovaquone (Av) suppress the activation of DDR2 and calcium release-activated calcium (CRAC) channel. FIG. 1A indicates HEK293T cells were transiently overexpressed with DDR2 and then pretreated with different compounds (10 μM), including WRG-28, Av, donepezil hydrochloride (Dh), terazosin hydrochloride (Th), verapamil and flecainide for 30 minutes. Verapamil and flecainide were used as negative control here. After that, cells were treated with 50 μg/mL type I collagen for 12 hours. Cell lysates were harvested and subjected to Western blot analysis with antibodies against phosphotyrosine antibody (clone 4G10), DDR2, and β-actin. […] CRAC channel activity was evaluated by applying 1 μM thapsigargin (Thap.) in a calcium-free solution to deplete the endoplasmic reticulum calcium store, followed by the reintroduction of 2 mM Ca^2+ in an external solution. […] Further analyses are presented in FIG. 1I and FIG. 1J, where the second peak of each wave and rate of entry were analyzed. […] The Orai1 and Stim1 puncta in HEK293T cells overexpressed with CFP-Orai1/Stim1-mCherry were assessed. […]
Cell lysates were harvested in RIPA buffer (150 mM NaCl, 1 mM EGTA, 50 mM Tris pH 7.4, 10% glycerol, 1% Triton X-100, 1% sodium deoxycholate, 0.1% SDS, and protease inhibitor cocktail) and collected from culture dish with cell scrapers. […] The protein expression levels were assessed by specific primary antibodies, including antibodies against phosphotyrosine (clone 4G10; Millipore), DDR2 (R&D), α-SMA (Sigma), Collagen 1a1 (Boster), E-cadherin (BD Biosciences), SGLT2 (Proteintech), NHE1 (Novus) and β-actin (Clone C4, Millipore), followed by incubating with secondary antibodies conjugated with HRP and detected by ECL kit (Thermo Scientific).
To examine the impact of these compounds on DDR2 activation, HEK293T cells overexpressing DDR2 were pretreated with various compounds. […] The activation of DDR2 was evaluated using an anti-phosphotyrosine antibody. […]
In general terms: In western blotting, separated proteins are transferred to a membrane and probed.

Another assay deals with CRAC channel (Homo sapiens, UniProt Q96D31). The experiment in a line: CRAC channel activity / SOCE by Fura 2-AM cytosolic Ca2+ imaging in HEK293T cells. The class given is cell-based. Details: endogenous in cells; host or cells: HEK293T. Conditions: 10 μM, 1 μM thapsigargin then 2 mM Ca2+.
In assay [1] the test system is BLM-induced pulmonary fibrosis. The experiment in a line: Bleomycin-induced lung fibrosis mouse model. The assay is classed as in vivo. The settings on record: 14 days, Nintedanib 60 mg/kg/day, WRG-28 5 mg/kg/day, Av 5 mg/kg/day. The source says: A Bleomycin (BLM)-induced lung fibrosis mouse model was used, and the timelines of operation and drug delivery are depicted in FIG. 11A. […] The hydroxyproline content, serving as a marker of collagen deposition, was extracted from the right lobe and analyzed; the results are shown in FIG. 11C. FIG. 11D depicts histological analysis derived from the left lobe, quantifying the fibrotic area through staining with Masson's Trichrome and Picrosirius red, respectively.
8-to-10-week-old male WT (C57BL/6) mice received intratracheal instillation of bleomycin (bleocin; Nippon Kayaku) at the dose of 3 mg/kg diluted in PBS or PBS only (sham). To study fibrosis, lung samples were collected on day 21 for further analysis.
Lung function was assessed using the flexi Vent system (Scireq, Montreal, QC, Canada). Mice were tracheostomized and ventilated at a rate of 150 breaths/min, tidal volume of 10 ml/kg, and a positive end-expiratory pressure (PEEP) of 2-3 cmH2O. A deep inflation perturbation was used to estimate the inspiratory capacity (IC). Pressure-Volume loops were generated by constant increasing pressure, followed by regular decreasing pressure. Other lung function parameters like resistance, compliance, and elastance were measured by using SnapShot-150.
Levels of hydroxyproline in lung tissues were measured using the Hydroxyproline Colorimetric Assay kit (BioVision, Milpitas, CA, USA). Briefly, 10 mg of frozen right middle lobes homogenized in 100 μL of hydrochloric acid (HCl, 12 N), and hydrolyzed at 120° C. for 3 h. Then, 10 μL of individual samples were used to quantify the absorbance at 560 nm. Hydroxyproline content was presented in μg per lobe.
Mouse left lungs were fixed overnight in 4% paraformaldehyde (PFA), embedded in paraffin, and sectioned in 5 μm thickness for picrosirius red (Abcam, Cambridge, UK) and Masson's trichrome staining (Sigma Aldrich, MO, USA). Measurement of fibrotic area was quantified using ImageJ software (NIH, http://rsbweb.nih.gov/ij/).
The efficacy of WRG-28 and Av in treating pulmonary fibrosis was examined in vivo using a BLM-induced pulmonary fibrosis mouse model for evaluation. 50 μL of Bleomycin (BLM, 3 mg/kg) or PBS were introduced by intratracheal instillation on day 0 to induce fibrosis or serve as the control group, respectively. This was followed by the administration of various compounds for 14 days (Nintedanib: 60 mg/kg/day, WRG-28:5 mg/kg/day, Av: 5 mg/kg/day). Lung function evaluation was conducted on day 21 (FIG. 11A). Nintedanib, an FDA-approved drug for idiopathic pulmonary fibrosis (IPF) treatment, was used as the positive control. The results of the lung function evaluation are depicted in FIG. 11B. […] The degree of these changes can be reversed through treatment with Nintedanib, WRG-28 or Av. […] Histological analysis was conducted through staining techniques to quantify the fibrotic area.

A further assay concerns Jurkat T cells. The experiment in a line: Cytokine secretion in T cells (ELISA). The class given is cell-based, human. Conditions: PHA/PMA induction, culture medium. (In an ELISA, binding on a coated surface is turned into a signal by an enzyme label.)
The test system of assay [2] is THP-1 derived macrophages. The experiment in a line: Cytokine secretion in macrophages (ELISA). The class given is cell-based, human. Conditions: IFN-γ/LPS induction, culture medium.

Chain of CRAC channel (Q96D31 whole entry): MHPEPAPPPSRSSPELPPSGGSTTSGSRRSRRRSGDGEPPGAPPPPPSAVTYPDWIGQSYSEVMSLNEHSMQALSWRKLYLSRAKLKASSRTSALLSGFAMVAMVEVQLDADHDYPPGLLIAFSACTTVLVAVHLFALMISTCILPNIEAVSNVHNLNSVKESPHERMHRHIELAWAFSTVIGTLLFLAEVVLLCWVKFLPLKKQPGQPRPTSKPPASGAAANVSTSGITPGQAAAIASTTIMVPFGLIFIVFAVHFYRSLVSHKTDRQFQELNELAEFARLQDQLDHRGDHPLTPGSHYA
Protocol for CRAC channel: CRAC channel activity was evaluated by applying 1 μM thapsigargin (Thap.) in a calcium-free solution to deplete the endoplasmic reticulum calcium store, followed by the reintroduction of 2 mM Ca^2+ in an external solution. The concentration of cytosolic calcium ions increases as calcium flows through the CRAC channel, leading to the second peak in cytosolic calcium waves. […] Each bar represents the mean value derived from 47 to 103 cells. […] Each bar represents the mean value derived from 83 to 176 cells. […] Further analyses are presented in FIG. 1I and FIG. 1J, where the second peak of each wave and rate of entry were analyzed. Each bar represents the mean value derived from 72 to 108 cells. […] In all the graphs, each bar represents mean±SEM and *, **, and *** denote p-value <0.05, 0.01, and 0.001, respectively.
Cells were then washed and incubated with the same solution in addition to the supplement of Fura 2-AM for another 15 minutes for fully de-esterification. […] 1 μM thapsigargin was added to induce endoplasmic reticulum (ER) calcium store depletion followed by applying 2 mM calcium solution to assess the activation of calcium release-activated calcium (CRAC) channels. Cells were alternately excited at 340 and 380 nm, and images were acquired every 2 seconds. […] All the images were analyzed by using IGOR Pro software. […]

Regarding `COc1cc2c(cc1OC)C(=O)C(CC1CCN(Cc3ccccc3)CC1)C2` (stereo not shown) [Dh, donepezil hydrochloride], the “activation of DDR2 (phosphotyrosine)” value at DDR2 is given as “significantly reduced”. In addition, the “second peak and rate of SOCE” value at CRAC channel is “did not show significant effects”.

With `COC(=O)c1ccc2c(c1)NC(=O)/C2=C(\Nc1ccc(N(C)C(=O)CN2CCN(C)CC2)cc1)c1ccccc1` [Nintedanib], the “BLM-induced changes in lung function (capacity, compliance, resistance, elastance)” value in assay [1] (day 21) was “reversed”. The “fibrotic area (Masson's trichrome and Picrosirius Red staining)” value in assay [1] (left lobe) is “effectively reduces”. Further, in assay [1] (right lobe), the “hydroxyproline content (degree of fibrosis)” value is listed as “inhibits the progression of fibrosis”.

Regarding `COc1cc2nc(N3CCN(C(=O)C4CCCO4)CC3)nc(N)c2cc1OC` (stereo not shown) [Th, terazosin hydrochloride], the “activation of DDR2 (phosphotyrosine)” value at DDR2 is recorded as “significantly reduced”.

Consider `Cc1cccc(F)c1C(=O)Nc1cnc(-c2cc3c(cc2Cl)OC(F)(F)O3)cn1` [CM-4620], for which the “secretion of IL-2 in T cells” value in the assay with Jurkat T cells is listed as “significantly reduced”. Besides, in assay [2], the “secretion of IL-2 in macrophages” value is “significantly reduced”, the “secretion of IL-6 in macrophages” value is “significantly reduced” and the “secretion of TNF-β in macrophages” value is listed as “significantly reduced”.
